Here are results for six compounds from ChEMBL document CHEMBL4028801, “A multifactorial approach to hepatobiliary transporter assessment enables improved therapeutic compound development” (Toxicol Sci, 2013).

The target of one data set is Bile salt export pump (Homo sapiens, UniProt O95342). As to the kind of experiment: Inhibition of human BSEP overexpressed in Sf9 cell membrane vesicles assessed as uptake of [3H]-taurocholate in presence of ATP measured after 15 to 20 mins by membrane vesicle transport assay. Format: ADME, cell-based.
Data set [1] is described as follows: Drug concentration at steady state in human at 1 to 40 mg, po QD after 24 hrs. Format: ADME, organism-based. Particulars: in vivo, read-out: Css.
Data set [2] concerns the target ATP-binding cassette sub-family C member 2 (Homo sapiens, UniProt Q92887). As to the kind of experiment: Inhibition of human MRP2 overexpressed in Sf9 cell membrane vesicles assessed as uptake of [3H]-estradiol-17beta-D-glucuronide in presence of ATP and GSH measured after 20 mins by membrane vesicle transport assay.
Data set [3] has as its target ATP-binding cassette sub-family C member 3 (Homo sapiens, UniProt O15438). As to the kind of experiment: Inhibition of human MRP3 overexpressed in Sf9 insect cell membrane vesicles assessed as uptake of [3H]-estradiol-17beta-D-glucuronide in presence of ATP and GSH measured after 10 mins by membrane vesicle transport assay. Format: ADME, cell-based.
The target of data set [4] is T1, ATP-binding cassette sub-family C member 4 (Homo sapiens, UniProt O15439).
T1 sequence (O15439 whole entry): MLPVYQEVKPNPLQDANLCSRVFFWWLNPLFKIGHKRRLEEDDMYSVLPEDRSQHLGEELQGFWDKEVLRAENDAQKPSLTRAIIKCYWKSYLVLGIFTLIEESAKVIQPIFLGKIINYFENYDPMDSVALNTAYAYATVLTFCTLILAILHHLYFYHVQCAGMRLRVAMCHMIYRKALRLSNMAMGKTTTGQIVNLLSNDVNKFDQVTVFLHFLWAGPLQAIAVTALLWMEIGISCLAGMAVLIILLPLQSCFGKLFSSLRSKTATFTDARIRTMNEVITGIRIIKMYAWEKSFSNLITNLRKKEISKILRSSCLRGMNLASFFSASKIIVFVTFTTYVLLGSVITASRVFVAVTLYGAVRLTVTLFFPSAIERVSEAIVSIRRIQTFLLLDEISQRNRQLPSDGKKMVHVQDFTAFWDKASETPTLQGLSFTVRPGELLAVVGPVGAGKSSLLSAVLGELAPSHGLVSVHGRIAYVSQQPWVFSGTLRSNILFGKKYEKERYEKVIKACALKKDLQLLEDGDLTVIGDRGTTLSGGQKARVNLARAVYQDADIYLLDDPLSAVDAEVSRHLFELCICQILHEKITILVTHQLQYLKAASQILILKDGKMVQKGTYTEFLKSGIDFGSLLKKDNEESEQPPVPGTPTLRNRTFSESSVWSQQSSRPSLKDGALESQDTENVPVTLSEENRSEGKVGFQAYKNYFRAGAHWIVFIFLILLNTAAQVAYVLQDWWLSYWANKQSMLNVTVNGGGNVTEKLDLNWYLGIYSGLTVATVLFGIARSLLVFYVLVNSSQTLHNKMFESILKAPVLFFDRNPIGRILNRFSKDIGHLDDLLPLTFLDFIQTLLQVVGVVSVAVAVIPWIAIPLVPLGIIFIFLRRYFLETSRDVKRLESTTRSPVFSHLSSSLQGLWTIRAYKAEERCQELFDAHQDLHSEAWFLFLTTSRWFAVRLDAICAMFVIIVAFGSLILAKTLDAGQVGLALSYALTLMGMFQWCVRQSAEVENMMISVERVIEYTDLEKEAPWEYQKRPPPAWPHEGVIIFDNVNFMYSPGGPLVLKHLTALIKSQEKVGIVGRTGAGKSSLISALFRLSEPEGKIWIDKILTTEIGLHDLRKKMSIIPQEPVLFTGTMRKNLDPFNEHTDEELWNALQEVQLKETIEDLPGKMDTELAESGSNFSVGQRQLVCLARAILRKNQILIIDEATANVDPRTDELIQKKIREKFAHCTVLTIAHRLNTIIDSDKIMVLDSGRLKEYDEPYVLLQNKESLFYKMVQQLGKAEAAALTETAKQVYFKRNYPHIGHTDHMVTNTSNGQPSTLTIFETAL
As to the kind of experiment: Inhibition of human MRP4 overexpressed in Sf9 cell membrane vesicles assessed as uptake of [3H]-estradiol-17beta-D-glucuronide in presence of ATP and GSH measured after 20 mins by membrane vesicle transport assay. It is filed as ADME, cell-based.

Data set [5] in a line: AUC in human at 1 to 40 mg, po QD after 24 hrs. It is filed as ADME, organism-based. Conditions: in vivo.
A short description of another data set: clinical. Particulars: human, in vivo, po, 10 mg.
The nature of data set [6]: Drug concentration at steady state in human at 10 mg, po QD after 24 hrs. Particulars: in vivo.
Data set [7] in a line: Ratio of drug concentration at steady state in human at 10 mg, po after 24 hrs to IC50 for human BSEP overexpressed in Sf9 insect cells. Conditions: in vivo. Format: ADME, organism-based.
A short description of data set [8]: AUC in human at 10 mg, po after 24 hrs. Format: ADME, organism-based. The arrangement: time < 24 hr, dose 10 mg, route oral. Particulars: in vivo.
A short description of data set [9]: Drug concentration at steady state in human at 10 mg, po after 24 hrs. It is filed as ADME, organism-based. Particulars: in vivo, read-out: Css.
Data set [10] in a line: Ratio of drug concentration at steady state in human administered intraocularly as 1 drop QD of 0.03% solution after 24 hrs to IC50 for human BSEP overexpressed in Sf9 insect cells. Format: ADME. Conditions: topical_or_ocular.
A short description of data set [11]: Ratio of drug concentration at steady state in human at 9 mg, po QD after 24 hrs to IC50 for human MRP3 overexpressed in Sf9 insect cells. It is filed as ADME, organism-based. Conditions: in vivo.
Data set [12] in a line: Ratio of drug concentration at steady state in human at 9 mg, po QD after 24 hrs to IC50 for human BSEP overexpressed in Sf9 insect cells. Format: ADME, organism-based. Conditions: in vivo.
The nature of data set [13]: Ratio of drug concentration at steady state in human at 9 mg, po QD after 24 hrs to IC50 for human MRP4 overexpressed in Sf9 insect cells. It is filed as ADME, organism-based. Conditions: in vivo.
Data set [14] is described as follows: Drug concentration at steady state in human at 9 mg, po QD after 24 hrs. It is filed as ADME, organism-based. Particulars: in vivo, read-out: Css.
The nature of data set [15]: AUC in human at 9 mg, po QD after 24 hrs. Particulars: in vivo. It is filed as ADME, organism-based. More on the design: time < 24 hr, dose 9 mg, route oral.
The nature of data set [16]: AUC in human at 0.2 mg, po QID after 6 hrs. It is filed as ADME, organism-based. More on the design: time < 6 hr, dose 0.2 mg, route oral. Particulars: in vivo.
The nature of data set [17]: Ratio of drug concentration at steady state in human at 0.2 mg, po QID after 6 hrs to IC50 for human BSEP overexpressed in Sf9 insect cells. It is filed as ADME, organism-based. Particulars: in vivo.
Data set [18] in a line: Ratio of drug concentration at steady state in human at 0.2 mg, po QID after 6 hrs to IC50 for human MRP4 overexpressed in Sf9 insect cells. It is filed as ADME, organism-based. Conditions: in vivo.

ATP-binding cassette sub-family C member 2, sequence (Q92887 whole entry): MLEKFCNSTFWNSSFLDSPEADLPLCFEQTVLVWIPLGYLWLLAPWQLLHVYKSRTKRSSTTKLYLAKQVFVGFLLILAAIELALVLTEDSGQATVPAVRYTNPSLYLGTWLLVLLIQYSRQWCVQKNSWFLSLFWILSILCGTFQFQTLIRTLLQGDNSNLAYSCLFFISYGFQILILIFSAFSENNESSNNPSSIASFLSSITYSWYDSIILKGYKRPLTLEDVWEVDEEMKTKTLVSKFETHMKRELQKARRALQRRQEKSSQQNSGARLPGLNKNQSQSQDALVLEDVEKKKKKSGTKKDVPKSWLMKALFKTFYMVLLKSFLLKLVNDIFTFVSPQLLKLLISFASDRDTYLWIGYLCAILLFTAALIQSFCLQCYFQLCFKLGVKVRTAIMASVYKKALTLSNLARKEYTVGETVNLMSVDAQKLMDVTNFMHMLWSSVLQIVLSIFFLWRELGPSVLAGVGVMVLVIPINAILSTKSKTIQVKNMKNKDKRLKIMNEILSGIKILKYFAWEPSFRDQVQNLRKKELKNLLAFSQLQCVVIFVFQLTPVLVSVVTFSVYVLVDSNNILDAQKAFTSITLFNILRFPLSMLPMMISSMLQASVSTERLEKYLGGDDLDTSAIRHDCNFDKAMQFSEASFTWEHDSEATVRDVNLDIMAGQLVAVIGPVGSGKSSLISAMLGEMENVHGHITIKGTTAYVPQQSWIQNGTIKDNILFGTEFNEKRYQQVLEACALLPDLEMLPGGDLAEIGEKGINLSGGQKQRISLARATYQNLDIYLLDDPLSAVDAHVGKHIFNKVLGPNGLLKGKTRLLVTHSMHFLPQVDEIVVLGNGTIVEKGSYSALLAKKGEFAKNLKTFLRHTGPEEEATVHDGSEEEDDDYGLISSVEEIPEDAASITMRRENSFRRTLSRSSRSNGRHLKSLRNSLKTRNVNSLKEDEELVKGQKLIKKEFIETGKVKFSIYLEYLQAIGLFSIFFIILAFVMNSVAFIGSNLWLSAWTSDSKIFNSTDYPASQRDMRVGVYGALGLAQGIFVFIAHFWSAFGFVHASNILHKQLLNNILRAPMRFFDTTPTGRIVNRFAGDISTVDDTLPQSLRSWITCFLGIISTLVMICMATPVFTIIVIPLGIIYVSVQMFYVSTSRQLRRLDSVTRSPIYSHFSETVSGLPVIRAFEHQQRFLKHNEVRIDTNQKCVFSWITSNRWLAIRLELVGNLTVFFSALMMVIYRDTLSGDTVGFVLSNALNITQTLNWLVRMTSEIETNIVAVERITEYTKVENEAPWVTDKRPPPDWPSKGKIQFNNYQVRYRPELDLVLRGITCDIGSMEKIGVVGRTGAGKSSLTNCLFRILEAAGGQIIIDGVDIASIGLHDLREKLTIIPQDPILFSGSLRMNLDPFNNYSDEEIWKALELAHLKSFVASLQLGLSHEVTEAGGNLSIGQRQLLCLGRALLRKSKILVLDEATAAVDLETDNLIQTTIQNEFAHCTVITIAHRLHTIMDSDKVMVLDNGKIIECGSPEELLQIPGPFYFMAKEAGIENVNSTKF
ATP-binding cassette sub-family C member 3, sequence (O15438 whole entry): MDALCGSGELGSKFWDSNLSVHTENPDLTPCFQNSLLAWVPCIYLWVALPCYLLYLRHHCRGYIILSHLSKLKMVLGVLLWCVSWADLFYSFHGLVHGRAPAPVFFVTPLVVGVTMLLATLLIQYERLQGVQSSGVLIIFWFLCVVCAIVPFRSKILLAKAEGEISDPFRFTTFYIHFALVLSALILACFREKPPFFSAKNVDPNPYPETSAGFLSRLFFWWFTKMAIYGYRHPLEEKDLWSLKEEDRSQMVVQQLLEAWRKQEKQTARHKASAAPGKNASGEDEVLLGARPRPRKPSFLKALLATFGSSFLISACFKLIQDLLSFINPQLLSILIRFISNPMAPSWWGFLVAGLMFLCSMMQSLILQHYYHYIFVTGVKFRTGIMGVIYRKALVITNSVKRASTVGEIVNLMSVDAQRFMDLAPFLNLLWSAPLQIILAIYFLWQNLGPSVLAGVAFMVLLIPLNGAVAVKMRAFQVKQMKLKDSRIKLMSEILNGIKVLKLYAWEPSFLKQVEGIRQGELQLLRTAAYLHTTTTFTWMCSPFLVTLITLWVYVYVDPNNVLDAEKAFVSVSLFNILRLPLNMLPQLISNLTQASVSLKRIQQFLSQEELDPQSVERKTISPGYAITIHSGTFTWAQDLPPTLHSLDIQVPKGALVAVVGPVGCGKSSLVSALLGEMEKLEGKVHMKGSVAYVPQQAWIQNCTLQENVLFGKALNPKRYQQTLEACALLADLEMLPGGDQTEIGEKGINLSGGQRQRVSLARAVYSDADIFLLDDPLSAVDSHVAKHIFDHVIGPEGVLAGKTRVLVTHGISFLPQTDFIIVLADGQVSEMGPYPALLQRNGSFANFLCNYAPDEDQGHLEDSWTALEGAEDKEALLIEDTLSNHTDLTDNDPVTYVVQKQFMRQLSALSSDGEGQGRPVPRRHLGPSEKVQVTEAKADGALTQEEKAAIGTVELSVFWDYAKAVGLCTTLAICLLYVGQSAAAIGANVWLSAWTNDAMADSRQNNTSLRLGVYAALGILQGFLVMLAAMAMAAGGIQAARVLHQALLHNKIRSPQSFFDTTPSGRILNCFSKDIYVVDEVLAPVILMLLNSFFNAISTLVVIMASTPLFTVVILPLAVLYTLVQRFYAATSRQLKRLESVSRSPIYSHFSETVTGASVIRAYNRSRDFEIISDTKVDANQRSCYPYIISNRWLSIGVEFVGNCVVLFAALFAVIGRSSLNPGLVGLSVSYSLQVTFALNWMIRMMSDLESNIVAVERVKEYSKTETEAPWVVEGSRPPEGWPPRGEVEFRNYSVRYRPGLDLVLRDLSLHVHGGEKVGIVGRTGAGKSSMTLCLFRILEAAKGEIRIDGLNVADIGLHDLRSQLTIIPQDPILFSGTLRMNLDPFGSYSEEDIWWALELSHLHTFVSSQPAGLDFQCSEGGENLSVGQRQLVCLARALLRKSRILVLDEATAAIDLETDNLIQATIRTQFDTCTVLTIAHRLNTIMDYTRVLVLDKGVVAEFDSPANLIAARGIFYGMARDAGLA
Bile salt export pump, sequence (O95342 whole entry): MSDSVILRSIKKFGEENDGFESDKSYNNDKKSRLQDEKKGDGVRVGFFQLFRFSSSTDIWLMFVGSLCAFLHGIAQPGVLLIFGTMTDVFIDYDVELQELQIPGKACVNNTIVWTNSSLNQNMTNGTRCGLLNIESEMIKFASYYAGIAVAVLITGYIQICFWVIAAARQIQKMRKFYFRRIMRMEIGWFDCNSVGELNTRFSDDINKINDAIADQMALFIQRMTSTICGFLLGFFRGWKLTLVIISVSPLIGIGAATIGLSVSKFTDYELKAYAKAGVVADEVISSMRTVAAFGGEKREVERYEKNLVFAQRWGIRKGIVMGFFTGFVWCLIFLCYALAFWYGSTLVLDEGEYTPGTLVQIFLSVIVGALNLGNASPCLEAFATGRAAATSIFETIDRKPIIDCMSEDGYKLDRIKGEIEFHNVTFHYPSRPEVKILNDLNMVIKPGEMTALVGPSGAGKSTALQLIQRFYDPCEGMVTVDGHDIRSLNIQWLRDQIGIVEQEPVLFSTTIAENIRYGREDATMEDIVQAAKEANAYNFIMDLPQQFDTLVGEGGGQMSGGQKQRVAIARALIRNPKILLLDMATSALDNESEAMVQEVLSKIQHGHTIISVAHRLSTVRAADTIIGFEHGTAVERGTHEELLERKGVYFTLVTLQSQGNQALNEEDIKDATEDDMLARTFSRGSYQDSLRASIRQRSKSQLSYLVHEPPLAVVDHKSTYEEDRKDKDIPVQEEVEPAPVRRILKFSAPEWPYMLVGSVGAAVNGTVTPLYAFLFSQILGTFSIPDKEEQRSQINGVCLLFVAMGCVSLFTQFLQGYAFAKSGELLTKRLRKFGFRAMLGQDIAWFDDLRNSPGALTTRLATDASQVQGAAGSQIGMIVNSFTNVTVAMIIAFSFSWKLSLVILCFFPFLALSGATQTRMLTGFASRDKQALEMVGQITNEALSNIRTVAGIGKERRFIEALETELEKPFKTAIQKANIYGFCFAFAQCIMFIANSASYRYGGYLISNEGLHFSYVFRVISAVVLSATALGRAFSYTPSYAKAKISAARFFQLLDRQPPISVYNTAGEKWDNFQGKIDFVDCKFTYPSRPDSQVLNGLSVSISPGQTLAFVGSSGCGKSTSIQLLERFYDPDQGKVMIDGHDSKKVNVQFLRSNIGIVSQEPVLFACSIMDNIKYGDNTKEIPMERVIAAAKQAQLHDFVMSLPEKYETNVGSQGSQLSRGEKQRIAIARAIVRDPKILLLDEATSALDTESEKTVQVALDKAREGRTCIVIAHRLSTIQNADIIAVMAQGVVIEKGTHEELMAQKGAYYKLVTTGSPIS

As to `Cl.OCCN1CCN(CCCN2c3ccccc3Sc3ccc(C(F)(F)F)cc32)CC1`, the IC50 is 87.3 µM at Bile salt export pump, above 133 µM in data set [2], above 133 µM in [3] and above 133 µM in data set [4]. Moreover, the concentration at 24 h in data set [1] came to 1 nM. This compound yielded an AUC at 24 h in [5] of 0.03 µM·h.
As for `CCOC(=O)N1CCC(=C2c3ccc(Cl)cc3CCc3cccnc32)CC1` [LORATADINE], the IC50 was 12 µM at Bile salt export pump, above 133 µM in [2], above 133 µM in data set [3] and above 133 µM in [4]. Further, the exposure (AUC) at 24 h in the data set “clinical” is 0.029 µM·h. In data set [6], the concentration at 24 h came out at 1 nM.
With `O=C1[C@H](CC[C@H](O)c2ccc(F)cc2)[C@@H](c2ccc(O)cc2)N1c1ccc(F)cc1` [EZETIMIBE], in data set [7], the Ratio was 0.002. Also, the 50% inhibitory concentration (IC50) at Bile salt export pump was 56 µM; in [2], above 133 µM; in data set [3] it was above 133 µM; in data set [4], above 133 µM. The compound also registered an AUC at 24 h in [8] of 3.2 µM·h. In [9], the concentration at 24 h is 134 nM.
For the compound `CCNC(=O)CCC/C=C\C[C@@H]1[C@@H](/C=C/[C@@H](O)CCc2ccccc2)[C@H](O)C[C@@H]1O` [BIMATOPROST], the IC50 on Bile salt export pump was 40.4 µM; in [2], above 133 µM; in [3] it was above 133 µM; in data set [4] it was above 133 µM. For the same compound, the Ratio in data set [10] stood at 2e-7.
With `CCCC1O[C@@H]2C[C@H]3[C@@H]4CCC5=CC(=O)C=C[C@]5(C)[C@H]4[C@@H](O)C[C@]3(C)[C@]2(C(=O)CO)O1` (stereo not given in full) [BUDESONIDE], the Ratio in data set [11] was determined as 0; in [12] it was 0.00001; in data set [13], 0. The half-maximal inhibitory concentration (IC50) at Bile salt export pump was 46 µM; in [2] it was above 133 µM; in [3], 54.5 µM; in [4], 37 µM. Besides, in [14], the concentration at 24 h turned out to be 0.629 nM. Further, the AUC at 24 h in [15] was found to be 0.0151 µM·h.
For the compound `CCCC[C@](C)(O)C/C=C/[C@H]1[C@H](O)CC(=O)[C@@H]1CCCCCCC(=O)OC`, the concentration for half-maximal inhibition (IC50) at Bile salt export pump is 27.7 µM; in [2], above 133 µM; in [3], above 133 µM; in [4], 46 µM. The AUC at 6 h in data set [16] was 0.001 µM·h. Moreover, the Ratio in [17] was found to be 0.00001; in data set [18], 0.
